According to patent US12084459B2, “2-(4-{1-[6-(4-isopropyl-phenyl)-imidazo[2,1-b][1,3,4]thiadiazol-2-yl]-piperidin-4-ylmethyl}-piperazin-1-yl)-ethanol and use thereof” (Urifer Ltd., priority 2020, dated 2024):

Columns and labels:
[1] = insolubility level in PBS/Polysorbate-80 (Tween 80) solution; format: physicochemical; conditions: 0.5 mM and 1 mM in PBS/Polysorbate-80 (Tween 80) solution at 25° C. (FIG. 1A, 1B)
[2] = tested on: metastatic Triple negative MDA-MB-231 Breast cancer cells; assay: viability / killing of MDA-MB-231 cells; format: cell-based; conditions: E266 versus E260; compound (I) as tartarate salt in 0.5% Tween-80; FIG. 5
Experimental: (§1) The compound (I), as tartarate salt was dissolved in 0.5% Tween-80 to affect the viability of several cell lines as follows.
(§2) The effect of the compound (I) (E266) on the growth profile of cancer cells which express Fer was tested. The cells that were tested were: the metastatic colon cancer cell line—SW620, the metastatic pancreatic ductal-adenocarcinoma SU.86.86 cancer cell-line—SU.86.86, the metastatic Triple Negative breast cancer cell line—MDA-MB-231, and the metastatic prostate cancer cell-line—PC3. The effect of the compound (I) (E266) on FS11 cells, a non malignant fibroblastic cell line, was also studied.

[3] = tested on: H358 derived xenografts; assay: H358 derived xenografts in Nude mice; format: in vivo; conditions: 25 mg/kg daily intraperitoneal in 1% Tween 80, H358 xenografts, FIG. 7
Text: In vivo activity of the E266 (compound (I) of the present application) compared to that of the E260 (EP 2401283) in H358 derived xenografts in immune-compromised (Nude) mice.
In order to compare the relative efficacy of E266 and E260 in inhibiting the development and progression of malignant tumors in-vivo, the activity in xenograft model in mice was examined for both compounds. H358 derived xenografts in immune-compromised were elicited in (Nude) mice. The H358 cells, which are metastatic bronchioloalveolar carcinoma (BAC)-non-small cell lung cancer (NSCLC) cells, were subcutaneously injected to the back of the nude mice. When the developing xenografts reached 100 mm^3 size, the inflicted animals were divided into three groups, 10 mice in each group. One group received daily intraperitoneal injection of the solvent 1% Tween 80. This solvent/emulsifier is biocompatible and is approved for pharmaceutical applications in humans. The second group received daily intraperitoneal injection of 25 mg/kg E260 dissolved in 1% Tween 80, and the third group got daily intraperitoneal injection of 25 mg/kg, E266 dissolved in the 1% Tween 80, solvent. The progression of the elicited xenografts was monitored by measuring twice a week the volumes of the developing tumors.

[4] = tested on: normal Epithelial cells; assay: effect on normal epithelial cells; format: cell-based; conditions: FIG. 2
Experimental: Compound (I) was dissolved in 20% hydroxypropylcyclodextrane and the volume of administration (IP) was 10 ml/kg.

[5] = tested on: metastatic colon cancer SW620 cells; assay: viability / killing of SW620 cells; format: cell-based; conditions: E266 versus E260; compound (I) as tartarate salt in 0.5% Tween-80; FIG. 3
Experimental: as §1, §2

[6] = tested on: metastatic pancreatic ductal adenocarcinoma Su.86.86 cancer cells; assay: viability / killing of Su.86.86 cells; format: cell-based; conditions: E266 versus E260; compound (I) as tartarate salt in 0.5% Tween-80; FIG. 4
Experimental: as §1, §2

[7] = tested on: metastatic adenocarcinoma PC3 prostate Cancer cells; assay: viability / killing of PC3 cells; format: cell-based; conditions: E266 versus E260; compound (I) as tartarate salt in 0.5% Tween-80; FIG. 6
Experimental: as §1, §2

For CC(C)c1ccc(-c2cn3nc(N4CCC(CN5CCN(CCO)CC5)CC4)sc3n2)cc1 [Compound E266, 2-(4-{1-[6-(4-isopropyl-phenyl)-imidazo[2,1-b][1,3,4]thiadiazol-2-yl]-piperidin-4-ylmethyl}-piperazin-1-yl)-ethanol], the “solubility (insolubility level)” value [1] was “soluble to a certain extent”, the “killing metastatic Triple negative MDA-MB-231 Breast cancer cells” value [2] was “comparable activity” and the “progression of the developing tumors (xenograft volume)” value [3] was “managed to halt the progression of the developing tumors”. For the same molecule, the “effect on normal Epithelial cells” value [4] was “no effect”, the “killing metastatic colon cancer SW620 cells” value [5] was “comparable activity” and the “killing metastatic pancreatic ductal adenocarcinoma Su.86.86 cancer cells” value [6] was “comparable activity”. For the same molecule, the “killing metastatic adenocarcinoma PC3 prostate Cancer cells” value [7] was “comparable activity”.
